# Active and inactive are the calls of the source. The rule behind the calls is not given here.
# Experiments:
# AGS [1] = assay: Induction of apoptosis in human AGS cells assessed as reduction of caspase3 activation at 100 uM after 24 hrs by Western blotting analysis in presence of bafilomycin A1; assay type: functional, cell-based
# AGS [2] = assay: Cytotoxicity against human AGS cells at 100 uM after 24 hrs by MTT assay in presence of bafilomycin A1; assay type: functional, cell-based
# HCT-116 [3] = assay: Induction of autophagy in human HCT116 cells assessed as massive vacuole formation at 50 uM after 24 hrs by acridine orange staining-based fluorescence microscopy in presence of bafilomycin A1; assay type: functional, cell-based
# AGS [4] = assay: Induction of autophagy in human AGS cells assessed as massive vacuole formation at 50 uM after 24 hrs by acridine orange staining-based fluorescence microscopy in presence of bafilomycin A1; assay type: functional, cell-based
# AGS [5] = assay: Induction of apoptosis in human AGS cells assessed as reduction of FasL level at 100 uM after 24 hrs by Western blotting analysis in presence of SP600125; assay type: functional, cell-based
# AGS [6] = assay: Induction of apoptosis in human AGS cells assessed as decrease in pERK level at 25 to 150 uM after 24 hrs by Western blotting analysis; assay type: functional, cell-based
# AGS [7] = assay: Induction of apoptosis in human AGS cells assessed as increase in pJNK level at 25 to 150 uM after 24 hrs by Western blotting analysis; assay type: functional, cell-based
# AGS [8] = assay: Induction of apoptosis in human AGS cells assessed as caspase-9 activation at 25 to 150 uM after 24 hrs by Western blotting analysis; assay type: functional, cell-based
# AGS [9] = assay: Induction of apoptosis in human AGS cells assessed as increase in FasL level at 25 to 150 uM after 24 hrs by Western blotting analysis; assay type: functional, cell-based
# HCT-116 [10] = assay: Antitumor activity against human HCT116 cells xenografted in BALB/c nude mouse assessed as reduction of Ki-67 expression at 40 mg/kg, ip administered 3 times a week for 5 weeks by immunohistochemical analysis; assay type: functional, organism-based; design: dose 40 mg/kg
# HCT-116 [11] = assay: Antitumor activity against human HCT116 cells xenografted in BALB/c nude mouse at 40 mg/kg, ip administered 3 times a week for 5 weeks relative to control; assay type: functional; settings: route intraperitoneal
# HCT-116 [12] = assay: Cell cycle arrest in human HCT116 cells assessed as accumulation at sub G1 phase after 24 hrs by propidium iodide staining-based flow cytometry; assay type: functional
# HCT-116 [13] = assay: Induction of apoptosis in human HCT116 cells assessed as apoptotic cells after 24 hrs by annexin V-FITC/propidium iodide staining-based flow cytometry; assay type: functional, cell-based
# AGS [14] = assay: Induction of apoptosis in human AGS cells assessed as apoptotic cells at 150 uM after 24 hrs by annexin V-FITC/propidium iodide staining-based flow cytometry; assay type: functional
# AGS [15] = assay: Induction of apoptosis in human AGS cells assessed as apoptotic cells at 100 uM after 24 hrs by annexin V-FITC/propidium iodide staining-based flow cytometry; assay type: functional
# AGS [16] = assay: Induction of apoptosis in human AGS cells assessed as apoptotic cells at 50 uM after 24 hrs by annexin V-FITC/propidium iodide staining-based flow cytometry; assay type: functional
# AGS [17] = assay: Induction of apoptosis in human AGS cells assessed as apoptotic cells at 25 uM after 24 hrs by annexin V-FITC/propidium iodide staining-based flow cytometry; assay type: functional
# HCT-116 [18] = assay: Induction of apoptosis in human HCT116 cells assessed as necrotic cells at 150 uM after 24 hrs by annexin V-FITC/propidium iodide staining-based flow cytometry (reference value: 0.68%); assay type: functional
# HCT-116 [19] = assay: Induction of apoptosis in human HCT116 cells assessed as necrotic cells at 100 uM after 24 hrs by annexin V-FITC/propidium iodide staining-based flow cytometry (reference value: 0.68%); assay type: functional
# HCT-116 [20] = assay: Induction of apoptosis in human HCT116 cells assessed as late apoptotic cells at 150 uM after 24 hrs by annexin V-FITC/propidium iodide staining-based flow cytometry (reference value: 2.71%); assay type: functional
# HCT-116 [21] = assay: Induction of apoptosis in human HCT116 cells assessed as late apoptotic cells at 50 uM after 24 hrs by annexin V-FITC/propidium iodide staining-based flow cytometry (reference value: 2.71%); assay type: functional
# HCT-116 [22] = assay: Induction of apoptosis in human HCT116 cells assessed as late apoptotic cells at 25 uM after 24 hrs by annexin V-FITC/propidium iodide staining-based flow cytometry (reference value: 2.71%); assay type: functional
# HCT-116 [23] = assay: Induction of apoptosis in human HCT116 cells assessed as early apoptotic cells at 150 uM after 24 hrs by annexin V-FITC/propidium iodide staining-based flow cytometry (reference value: 3.61%); assay type: functional
# HCT-116 [24] = assay: Induction of apoptosis in human HCT116 cells assessed as early apoptotic cells at 100 uM after 24 hrs by annexin V-FITC/propidium iodide staining-based flow cytometry (reference value: 3.61%); assay type: functional
# HCT-116 [25] = assay: Induction of apoptosis in human HCT116 cells assessed as early apoptotic cells at 50 uM after 24 hrs by annexin V-FITC/propidium iodide staining-based flow cytometry (reference value: 3.61%); assay type: functional
# AGS [26] = assay: Induction of apoptosis in human AGS cells assessed as necrotic cells at 25 uM after 24 hrs by annexin V-FITC/propidium iodide staining-based flow cytometry (reference value: 0.12%); assay type: functional
# AGS [27] = assay: Induction of apoptosis in human AGS cells assessed as late apoptotic cells at 25 uM after 24 hrs by annexin V-FITC/propidium iodide staining-based flow cytometry (reference value: 7.3%); assay type: functional
# AGS [28] = assay: Induction of apoptosis in human AGS cells assessed as early apoptotic cells at 150 uM after 24 hrs by annexin V-FITC/propidium iodide staining-based flow cytometry (reference value: 6.6%); assay type: functional
# AGS [29] = assay: Induction of apoptosis in human AGS cells assessed as early apoptotic cells at 100 uM after 24 hrs by annexin V-FITC/propidium iodide staining-based flow cytometry (reference value: 6.6%); assay type: functional
# AGS [30] = assay: Induction of apoptosis in human AGS cells assessed as early apoptotic cells at 25 uM after 24 hrs by annexin V-FITC/propidium iodide staining-based flow cytometry (reference value: 6.6%); assay type: functional
# AGS [31] = assay: Induction of apoptosis in human AGS cells assessed as membrane blebbing at >100 uM after 24 hrs by acridine orange staining-based microscopy; assay type: functional, cell-based
# AGS [32] = assay: Induction of apoptosis in human AGS cells assessed as cell shrinkage at >100 uM after 24 hrs by acridine orange staining-based microscopy; assay type: functional
# [33] = Cytotoxicity against human Chang cells after 24 hrs by MTT assay; assay type: cell-based
# AGS [34] = assay: Induction of apoptosis in human AGS cells assessed as cell rounding at >100 uM after 24 hrs by acridine orange staining-based microscopy; assay type: functional
# HCT-116 [35] = assay: Cytotoxicity against human HCT116 cells after 24 hrs by MTT assay; assay type: functional, cell-based
# AGS [36] = assay: Induction of autophagy in human AGS cells assessed as massive vacuole formation at 50 uM after 24 hrs by acridine orange staining-based fluorescence microscopy; assay type: functional, cell-based
# AGS [37] = assay: Induction of apoptosis in human AGS cells assessed as reduction of caspase3 activation at 100 uM after 24 hrs by Western blotting analysis in presence of SB202190; assay type: functional, cell-based
# AGS [38] = assay: Induction of apoptosis in human AGS cells assessed as reduction of caspase3 activation at 100 uM after 24 hrs by Western blotting analysis in presence of SP600125; assay type: functional, cell-based
compound,measurement,setting,value
CC(C)=C[C@H]1C[C@](C)(O)[C@@H]2[C@H]3CC[C@@H]4[C@@]5(C)CC[C@H](O[C@@H]6OC[C@H](O)[C@H](O[C@@H]7O[C@H](CO)[C@@H](O)[C@H](O)[C@H]7O[C@@H]7OC[C@@H](O)[C@H](O)[C@H]7O)[C@H]6O[C@@H]6O[C@@H](C)[C@H](O)[C@@H](O)[C@H]6O)C(C)(C)[C@@H]5CC[C@@]4(C)[C@@]34CO[C@@]2(C4)O1,Activity,AGS [1],Active
same,Activity,AGS [2],Active
same,Activity,HCT-116 [3],inactive
same,Activity,AGS [4],inactive
same,Activity,AGS [5],inactive
same,Activity,AGS [6],inactive
same,Activity,AGS [7],Active
same,Activity,AGS [8],inactive
same,Activity,AGS [9],Active
same,Activity,HCT-116 [10],Active
same,Activity,HCT-116 [11],60%
same,Activity,HCT-116 [12],Dose-dependent effect
same,Activity,HCT-116 [13],Dose-dependent effect
same,Activity,AGS [14],39.55%
same,Activity,AGS [15],28.85%
same,Activity,AGS [16],15.78%
same,Activity,AGS [17],10.81%
same,Activity,HCT-116 [18],5.1%
same,Activity,HCT-116 [19],3.05%
same,Activity,HCT-116 [20],17.9%
same,Activity,HCT-116 [21],2.53%
same,Activity,HCT-116 [22],1.67%
same,Activity,HCT-116 [23],43.39%
same,Activity,HCT-116 [24],37.59%
same,Activity,HCT-116 [25],6.65%
same,Activity,AGS [26],0.55%
same,Activity,AGS [27],5.24%
same,Activity,AGS [28],27.43%
same,Activity,AGS [29],16.41%
same,Activity,AGS [30],5.57%
same,Activity,AGS [31],Active
same,Activity,AGS [32],Active
same,IC50,[33],182 µM
same,Activity,AGS [34],Active
same,Activity,HCT-116 [35],Dose-dependent effect
same,IC50,"HCT-116 [35]; HCT-116, 24 h",114 µM
same,Activity,AGS [36],Active
same,Activity,AGS [37],inactive
same,Activity,AGS [38],inactive

# — ChEMBL document CHEMBL3108668, “Antitumor activity of jujuboside B and the underlying mechanism via induction of apoptosis and autophagy” (J Nat Prod, 2014)
